The values that follow come from patent US20200378993A1, “MEDICAL USES OF APOLIPOPROTEIN A AND ACTIVATORS THEREOF” (FUNDACIÓN IMDEA ALIMENTACIÓN, priority 2017, published 2020).

Holding throughout (format): cell-based, human
Test [1] has as its system DLD1 cells. As to the kind of experiment: Invasion assay (Corning BioCoat Matrigel plates). As for the experimental part: Cell viability and proliferation assays were carried out by means of XCELLigence technology (ACEA Biosciences, Inc.) following the manufacturer's indications. Migration and invasion assays were carried out in Corning® BioCoat™ Control plates (#354578) and Corning® BioCoat™ Matrigel plates (#354480), respectively, following the manufacturer's indications. For the rescue assays, the cells were treated for 72 hours with 30 μM apabetalone (RVX-208; Biovision). Antibodies: ABCA1 (Ab18180, Abcam. 1:500); caveolin-1 (Ab2910, Abcam. 1:1000); α-tubulin (T9026, Sigma 1:1000). The DLD1 cells correspond to a human colorectal cancer-derived adherent epithelial cell line (ATCC® CCL-221™). The stable cell lines capable of overexpressing ABCA1 were obtained by means of transduction with genetically modified lentivirus.
Following the same treatment regimen, the inventors carried out migration and invasion assays.
The same assays were repeated by replacing ApoA1 with a treatment with RVX-208. In this case, DLD1 cells were pre-treated for 72 hours before the start of the experiment with RVX-208 at a concentration of 30 μm and were subjected to a treatment with 15 μM of RVX-208 during the development of the experiments.
For the purpose of confirming that the effects of RVX-208 in cell phenotype recovery were due to the increase in ApoA-1 expression, the inventors inhibited the expression of said protein by means of transfection of a complementary small RNA, ShApoA1 (FIG. 9). Twenty-four hours after transfection with ShApoA1 expression vector, the inventors started treatment with 30 μM of RVX-208. Cell viability and proliferation in DLD1 cells (D_NoORF) and D1D1 cell lines expressing increased ApoA1 levels (D_ApoA1 ) were analyzed with the xCELLigence system.

Test [2] has as its system E-cadherin. As to the kind of experiment: Epithelial-mesenchymal transition marker expression by quantitative PCR. The note with it: RVX-208 30 μm 72 hours then 15 μM. As for the experimental part: (§1) FIG. 4. A) Proliferation curve in a viability assay carried out by means of XCELLigence technology. Growth of DLD1 cells treated with DMSO as the drug carrier and with Rvx-208 (30 μM). The significant differences existing in the slope of the graph, and therefore in the growth dynamics of the treated cells are shown in the right panel (**p-value=0.0087). B) Image representing the untreated cell cultures and those treated with Rvx-208. Expression levels of proteins E-cadherin and vimentin in the presence and absence of Rvx-208. Analysis performed by means of quantitative PCR. The relative expression levels normalized with respect to the untreated control are shown. C) Migration and invasion assays in the presence of Rcx-208. FIG. 7. A) Proliferation curve in a viability assay carried out by means of XCELLigence technology. Growth of DLD1 cells treated with DMSO as the drug carrier and with Rvx-208 (30 μM). The significant differences existing in the slope of the graph, and therefore in the growth dynamics of the treated cells are shown in the right panel (****p-value<0.0001). B) Migration and invasion assays. The method followed was the same as the one described in FIG. 2 (*p-value=0.0407; ****p-value<0.0001). C) Expression levels of proteins E-cadherin and Vimentin in the presence and absence of Rvx-208. Analysis performed by means of quantitative PCR. The relative expression levels normalized with respect to the untreated control are shown. D) ABCA1, ApoA1, caveolin-1, and α-tubulin immunodetection by means of Western blot. α-tubulin acts as load control. The results of the cells treated with Rvx-208 (30 μM) or with the DMSO carrier are shown. E) Cholesterol flux in cells treated with Rvx-208. The same assays were repeated by replacing ApoA1 with a treatment with RVX-208. In this case, DLD1 cells were pre-treated for 72 hours before the start of the experiment with RVX-208 at a concentration of 30 μm and were subjected to a treatment with 15 μM of RVX-208 during the development of the experiments. […] The inventors were able to confirm said results based on the treatment of DLD1 cells expressing ABCA1 with RVX-208 under the conditions already described in detail in Example 3. In this case, the DLD1 cells overexpressing ABCA1 were pre-treated for 72 hours before the start of the experiment with RVX-208 at a concentration of 30 μm and were subjected to a treatment with 15 μM of RVX-208 during the development of the experiments. […] The levels of caveolin-1, a protein whose increased levels have been associated with increases in cell migration and invasion, were also analyzed in this experiment.

Test [3] has as its system vimentin. Described as above. The note with it: RVX-208 30 μm 72 hours then 15 μM. The procedure:
as §1

Test [4] concerns caveolin-1. As to the kind of experiment: Caveolin-1 immunodetection by Western blot. The note with it: RVX-208 (30 μM) versus DMSO carrier. As for the experimental part: FIG. 7. A) Proliferation curve in a viability assay carried out by means of XCELLigence technology. Growth of DLD1 cells treated with DMSO as the drug carrier and with Rvx-208 (30 μM). The significant differences existing in the slope of the graph, and therefore in the growth dynamics of the treated cells are shown in the right panel (****p-value<0.0001). B) Migration and invasion assays. The method followed was the same as the one described in FIG. 2 (*p-value=0.0407; ****p-value<0.0001). C) Expression levels of proteins E-cadherin and Vimentin in the presence and absence of Rvx-208. Analysis performed by means of quantitative PCR. The relative expression levels normalized with respect to the untreated control are shown. D) ABCA1, ApoA1, caveolin-1, and α-tubulin immunodetection by means of Western blot. α-tubulin acts as load control. The results of the cells treated with Rvx-208 (30 μM) or with the DMSO carrier are shown. E) Cholesterol flux in cells treated with Rvx-208. […]
The inventors were able to confirm said results based on the treatment of DLD1 cells expressing ABCA1 with RVX-208 under the conditions already described in detail in Example 3. […] The levels of caveolin-1, a protein whose increased levels have been associated with increases in cell migration and invasion, were also analyzed in this experiment.
(In general: A western blot detects proteins with antibodies after separation by electrophoresis.)

[5] abbreviates: DLD1 cells overexpressing ABCA1.

In the case of `COc1cc(OC)c2c(=O)[nH]c(-c3cc(C)c(OCCO)c(C)c3)nc2c1` [RVX-208, 2-(4-(2-hydroxyethoxy)-3,5-dimethylphenyl)-5,7-dimethoxyquinazolin-4(3H)-one], the invasive capacity entry in test [1] (RVX-208 30 μm 72 hours then 15 μM, DLD1 cells) is “significant decreases the migratory and invasive capacity”. The “effectiveness of treatment in terms of a decrease in cell invasion capacities” value in test [1] (Rvx-208 with ApoA1 silenced by shApoA1, control cells) is “reduces the effectiveness of treatment”. Further, the E-cadherin expression levels entry in test [2] (DLD1 cells) and in test [2] (setting [5]) was “increase in E-cadherin expression levels” in each case. The vimentin levels entry in test [3] (DLD1 cells) and in test [3] (setting [5]) was “decrease in vimentin levels” throughout. Also, the caveolin-1 protein levels result in test [4] was “capable of reducing the levels of said protein”.
